From US20190290675A1, “GLYCAN POLYMERS AND RELATED METHODS THEREOF” (priority 2016, published 2019)

Key:
Assay in all cases: single strain growth assay, enzymatically synthesized glycans and parent sugars
Format in all cases: cell-based
Conditions in all cases: 0.5% w/v, 37° C., 18-48 hours, anaerobic; OD600 blanked against no glycan or sugar
[1] = tested on: Dorea formicigenerans ATCC 27755 “DFO.36”
Experimental: (§1) An in vitro assay was performed to assess the ability of various bacterial strains, including commensals and pathogens of the gastrointestinal tract, to utilize enzymatically synthesized glycans (i.e., glycan polymers) and the sugars from which they were derived as growth substrates. The assay was designed to determine if enzymatically synthesized glycans differ from the sugars from which they are derived in how well they support growth of potentially beneficial or harmful bacterial members of the human microbiome. Bacterial strains were handled at all steps in an anaerobic chamber (AS-580, Anaerobe Systems) featuring a palladium catalyst. The chamber was initially made anaerobic by purging with an anaerobic gas mixture of 5% hydrogen, 5% carbon dioxide and 90% nitrogen and subsequently maintained in an anaerobic state using this same anaerobic gas mixture. Anaerobicity of the chamber was confirmed daily using Oxoid anaerobic indicator strips that change color in the presence of oxygen. All culture media, assay plates, other reagents and plastic consumables were pre-reduced in the anaerobic chamber for at least 24-48 hours prior to contact with bacteria. […] Bacterial isolates were obtained from the American Type Culture Collection (ATCC) and Leibniz Institute DSMZ-German Institute of Microorganisms and Cell Cultures (DSMZ). […] Inocula were prepared by determining the optical density of each culture at 600 nM (OD600) in a Costar 3370 polystyrene 96-well flat-bottom assay plate using a Biotek Synergy 2 plate reader with Gen5 2.0 All-In-One Microplate Reader Software according to manufacturer's protocol, and diluting the cells to OD600 0.01 final in defined and semi-defined media that were prepared without sugars. […]

[2] = tested on: Clostridium scindens ATCC 35704 “CSC.32”
Experimental: as §1

[3] = tested on: Parabacteroides distasonis ATCC 8503 “PDI.6”
Experimental: as §1

[4] = tested on: Bacteroides thetaiotaomicron ATCC 29741 “BTH.8”
Experimental: as §1

[5] = tested on: Dorea longicatena DSM 13814 “DLO.76”
Experimental: as §1

[6] = tested on: Blautia hansenii ATCC 27752 “BHA.20”
Experimental: An in vitro assay was performed to assess the ability of various bacterial strains, including commensals and pathogens of the gastrointestinal tract, to utilize enzymatically synthesized glycans (i.e., glycan polymers) and the sugars from which they were derived as growth substrates. The assay was designed to determine if enzymatically synthesized glycans differ from the sugars from which they are derived in how well they support growth of potentially beneficial or harmful bacterial members of the human microbiome. Bacterial strains were handled at all steps in an anaerobic chamber (AS-580, Anaerobe Systems) featuring a palladium catalyst. The chamber was initially made anaerobic by purging with an anaerobic gas mixture of 5% hydrogen, 5% carbon dioxide and 90% nitrogen and subsequently maintained in an anaerobic state using this same anaerobic gas mixture. Anaerobicity of the chamber was confirmed daily using Oxoid anaerobic indicator strips that change color in the presence of oxygen. All culture media, assay plates, other reagents and plastic consumables were pre-reduced in the anaerobic chamber for at least 24-48 hours prior to contact with bacteria. […] Inocula were prepared by determining the optical density of each culture at 600 nM (OD600) in a Costar 3370 polystyrene 96-well flat-bottom assay plate using a Biotek Synergy 2 plate reader with Gen5 2.0 All-In-One Microplate Reader Software according to manufacturer's protocol, and diluting the cells to OD600 0.01 final in defined and semi-defined media that were prepared without sugars. […]

Row | Compound | Growth, DFO.36 [1] | Growth, CSC.32 [2] | Growth, PDI.6 [3] | Growth, BTH.8 [4] | Growth, DLO.76 [5] | Growth, BHA.20 [6]
1 | OC[C@H]1O[C@@H](O[C@@H]2[C@@H](CO)OC(O)(CO)[C@H]2O)[C@H](O)[C@@H](O)[C@H]1O (mixture of isomers) [lactulose] | − (<0.1) | − (<0.1) | ++ (0.3-0.7) | + (0.1-0.3) | − (<0.1) | +++ (>0.7)
2 | OC[C@H]1O[C@H](OC[C@H]2O[C@H](O[C@]3(CO)O[C@H](CO)[C@@H](O)[C@@H]3O)[C@H](O)[C@@H](O)[C@@H]2O)[C@H](O)[C@@H](O)[C@H]1O [raffinose] | − (<0.1) | − (<0.1) | +++ (>0.7) | − (<0.1) | − (<0.1) | ++ (0.3-0.7)
3 | OC[C@H]1O[C@@](CO)(O[C@H]2O[C@H](CO)[C@@H](O)[C@H](O)[C@H]2O)[C@@H](O)[C@@H]1O [sucrose] | − (<0.1) | − (<0.1) | ++ (0.3-0.7) | +++ (>0.7) | +++ (>0.7) | − (<0.1)
